Test results as given in US11306063B2, “Heterocyclic naphthoquinones derivatives for use in the treatment of cancers including Cushing disease” (Commissariat a l'Energie Atomique et aux Energies …, priority 2016, dated 2022).

Tests used:
USP8^CD = target: T1, USP8^CD (Homo sapiens, UniProt P40818); test: tri-Ub^K63 chains hydrolysis by USP8^CD (western blot); format: biochemical; conditions: FIG. 1D, at the indicated concentrations
T1 construct: the purified catalytic domain of USP8 (USP8^CD, in-house purified); made in house; host or cells: E. coli BL21 Gold
T1 sequence (P40818 777-1109 limits assumed): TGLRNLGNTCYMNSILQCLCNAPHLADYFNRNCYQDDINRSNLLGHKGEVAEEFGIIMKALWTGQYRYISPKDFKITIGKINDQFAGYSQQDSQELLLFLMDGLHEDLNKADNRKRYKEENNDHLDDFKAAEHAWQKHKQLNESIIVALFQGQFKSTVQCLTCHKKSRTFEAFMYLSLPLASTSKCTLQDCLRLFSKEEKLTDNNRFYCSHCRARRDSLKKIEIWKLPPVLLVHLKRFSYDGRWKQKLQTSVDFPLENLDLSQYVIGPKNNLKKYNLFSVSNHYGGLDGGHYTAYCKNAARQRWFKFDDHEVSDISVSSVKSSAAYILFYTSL
Protocol: The degradation of purified lysine 63-linked tree-Ubiquitin chains (triUb^K63) over a 90 minutes period of time was visualized by western blot analysis. […] Enzymatic assay was performed in a HEPES buffer (50 mM pH7.4, 150 mM NaCl, 0.5 mM EDTA, 2% glycerol, 0.2 mg/ml BSA, 5 mMDTT).

p53 in HCT116 cells = test: Protein expression by immunoblot, HCT116; format: cell-based, human; conditions: dose dependent; FIG. 7B
Protocol: Actin or Tubulin (Tub) serve as loading controls. One representative experiment out of three is presented.
(§1) Cells were treated by either DMSO (0.5%) or increasing doses of the selected molecules from 1 μM to 10 μM over 6 to 24 hours as indicated. Cell lysates were analyzed by immunoblotting following standard procedure using primary antibodies from Cell Signaling: anti-total P53 (#9282), anti-phosphoP53 Kit (#9919), anti-cyclinD1 (#2926), anti-FAS (#3189), anti EGFR (#4267), anti-Phospho (tyr1068) EGFR (#2234), anti Met (#4560), anti-Akt (#9272), anti Phospho(Ser473)-Akt (#9271) or anti-Myc (Santa Cruz Technology #Sc-40). Tubulin was detected using anti α-tubulin primary antibody (in-house: the polyclonal Glu-tubulin antibody (L4) is available commercially from Abcys (Paris, France)). HRP-coupled anti-rabbit (#A6154) and anti-mouse (#A4416) secondary antibodies were purchased from Sigma. HRP activity was detected through HRP chemoluminescence detection reagent (Millipore, #WBLUF0100). Apoptotic cell death induction was observed through the observation of PARP cleavage using anti-PARP primary antibodies anti-PARP (46D11) (#9532). Positive control was Epotoside at 50 μM or 100 μM, a known drug inducing cancerous cell death by apoptosis.

USP8 = conditions: increasing concentrations; HEK293T lysate; FIG. 13D
Protocol: FIG. 13 D: Flag-USP8 constructs were transfected in HEK293T cells for 48 hours using standard protocols. After cell lysis, the whole cell lysate was incubated with HA-Ub-Vs at 1.5 μM during 12 hours. Then the mixture was separated on SDS-page gel and immunoblotted with anti Flag antibodies (to reveal USP8). The upper band corresponds to USP8 linked to HA-Ub-Vs while the lower band corresponds to free USP8. Immunoblot with anti-tubuline antibodies served as internal loading control.

[1] = system: EGFR and Met in HEK293T cells; test: Protein expression by immunoblot, HEK293T (Flag-USP8-S680A); format: cell-based, human; conditions: FIG. 11
Protocol: One representative experiment out of two is presented.
(§2) Cells were treated by either DMSO (0.5%) or increasing doses of the selected molecules from 1 μM to 10 μM over 6 to 24 hours as indicated. […] Tubulin was detected using anti α-tubulin primary antibody (in-house: the polyclonal Glu-tubulin antibody (L4) is available commercially from Abcys (Paris, France)). HRP-coupled anti-rabbit (#A6154) and anti-mouse (#A4416) secondary antibodies were purchased from Sigma. HRP activity was detected through HRP chemoluminescence detection reagent (Millipore, #WBLUF0100). […] Positive control was Epotoside at 50 μM or 100 μM, a known drug inducing cancerous cell death by apoptosis.

HCC827 cells = test: Cytotoxicity assay (PrestoBlue cell viability), HCC827; format: cell-based; conditions: Homo sapiens, 48 hours treatment
Protocol: Messa, Messa DX5, HCT116, HEK-293, PC-3, LNCaP, HCC827 and H1975 cell lines are issued from the American Type Culture Collection (ATCC).
For cytotoxicity assays, cells were seeded in 96-well microplates 24 hours before the addition of increasing concentrations of each compound in the culture medium. Cell viability was analyzed 48 hours following addition of each compound through the monitoring of mitochondrial […] activity using PrestoBlue® Cell Viability Reagent (Invitrogen; #A-13261). Paclitaxel was used as a control which is cytotoxic on various cancerous cells although not on chemoresistant MESSA DX5 lineage.

[2] = system: CyclinD1 and FAS in PC-3 cells; test: Protein expression by immunoblot, PC-3; format: cell-based, human; conditions: dose and time dependent; 6 h or 24 h; FIG. 6
Protocol: In FIG. 6B and FIG. 6D, LNCaP cells were treated with dihydrotestosterone (DHT) to induce hormonal dependent FAS expression. Actin or Tubulin (Tub) serve as loading controls. One representative experiment out of three is presented.
as §1

chicken embryos = test: Toxicity in the chick embryo model; format: in vivo; conditions: each second day at 2 μM or 10 μM; FIG. 4B
Protocol: The number of dead embryo evaluates the toxicity after 10 days of the treatment as well as the research of abnormality on 22 checkpoints observed on surviving embryos at two concentrations of drugs (i.e. 2 μM and 10 μM). • Head: Size, Closure, Eyes, Ear, Face and Branchial are derivatives, Mobility; • Body: Size, Axis deformation, ventral and dorsal Closures, Caudal formation, Sexual area; • Limbs: Size, Axis morphology, Mobility, • Skin: Appendage formation, Attachment, Blood vessel; • Extra-Embryonic Structures: Vascularisation, Transparency, Attachment, Blood vessel Results

LNCaP cells spheroids = test: Cell migration out of 3D spheroids; format: cell-based, human; conditions: 2 μM and 5 μM; 1 to 7 days; FIG. 3
Protocol: In vitro migration out of the spheroid was performed using a 96-well tissue culture plate (Cell Culture Microplate, 96 wells, Flat-BOTTOM, CellStar #655090). 100 μL (72 h hours old+24 h drug treatment spheroids) were placed in corresponding well of the new flat microplate, and daily observed in bright field with a Zeiss Axio Observer microscope. Each condition was made in six replicates. The migration area was measured with the tools of the AxioObserver software.
To this end, 3-days old spheroids are placed in a new flat-well microplate and daily observed in bright field.

USP8-FL = USP8-FL (Homo sapiens, UniProt P40818); test: biochemical
Sequence of USP8-FL (P40818 whole entry): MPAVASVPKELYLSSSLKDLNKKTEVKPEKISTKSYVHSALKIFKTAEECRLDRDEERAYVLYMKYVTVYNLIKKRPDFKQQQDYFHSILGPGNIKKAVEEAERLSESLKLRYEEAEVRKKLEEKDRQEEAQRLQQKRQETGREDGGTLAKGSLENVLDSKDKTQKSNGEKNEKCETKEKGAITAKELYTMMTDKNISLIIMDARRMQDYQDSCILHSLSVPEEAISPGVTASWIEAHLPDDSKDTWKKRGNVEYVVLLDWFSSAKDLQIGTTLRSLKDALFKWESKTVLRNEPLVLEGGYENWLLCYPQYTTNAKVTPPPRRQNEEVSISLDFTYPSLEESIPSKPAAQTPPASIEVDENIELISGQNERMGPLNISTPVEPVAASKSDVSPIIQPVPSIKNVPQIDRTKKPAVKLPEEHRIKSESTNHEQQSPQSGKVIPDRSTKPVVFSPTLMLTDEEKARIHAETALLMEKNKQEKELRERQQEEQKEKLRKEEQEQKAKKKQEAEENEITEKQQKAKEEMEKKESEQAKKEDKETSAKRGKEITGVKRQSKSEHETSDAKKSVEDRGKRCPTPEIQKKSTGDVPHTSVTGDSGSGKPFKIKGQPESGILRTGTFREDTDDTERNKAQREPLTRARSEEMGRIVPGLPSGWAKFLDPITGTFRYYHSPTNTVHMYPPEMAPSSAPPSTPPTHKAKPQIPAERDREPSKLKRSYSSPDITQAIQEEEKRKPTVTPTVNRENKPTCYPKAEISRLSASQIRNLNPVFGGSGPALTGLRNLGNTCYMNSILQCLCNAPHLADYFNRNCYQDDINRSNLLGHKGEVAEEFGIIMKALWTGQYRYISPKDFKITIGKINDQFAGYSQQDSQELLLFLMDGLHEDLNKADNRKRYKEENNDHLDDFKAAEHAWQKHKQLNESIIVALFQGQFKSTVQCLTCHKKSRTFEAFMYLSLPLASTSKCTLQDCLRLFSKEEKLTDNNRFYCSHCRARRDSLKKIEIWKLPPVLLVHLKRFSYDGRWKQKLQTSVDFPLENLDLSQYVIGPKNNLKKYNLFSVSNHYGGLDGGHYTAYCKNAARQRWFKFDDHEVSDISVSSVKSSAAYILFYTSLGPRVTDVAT

[3] = system: EGFR, P-EGFR, Met, P-Akt in HCC827 cells; test: Protein expression by immunoblot, HCC827; format: cell-based, human; conditions: 6 hours; dose dependent; FIG. 10
Protocol: Tubulin (Tub) serve as loading controls. One representative experiment out of two is presented.
as §2

Row | Compound | inhibition of tri-Ub^K63 chains hydrolysis by USP8^CD (USP8^CD) | p53 expression, HCT-116 (p53 in HCT116 cells) | HA-Ub-VS binding to USP8 in the whole cell lysate (USP8) | EGFR levels induced by USP8-S680A, HEK293T ([1]; 6 h) | Met degradation, HEK293T ([1]; 6 hours, dose-dependent) | EC50 (HCC827 cells) | expression level of CyclinD1, PC-3 [2] | expression level of FAS, PC-3 [2] | toxicity (death, macroscopic abnormalities) in chick embryo (chicken embryos) | prevention of cell migration out of the spheroids (LNCaP cells spheroids) | IC50 (USP8-FL) | Akt phosphorylation, HCC827 [3] | EGFR degradation, HCC827 [3] | EGFR phosphorylation, HCC827 [3] | Met degradation, HCC827 [3]
1 | CCCCS(=O)(=O)Cc1nc2c(o1)C(=O)c1ccccc1C2=O [PCR9301] | full inhibition | – | – | – | – | – | – | – | – | – | – | – | – | – | –
2 | CCCCS(=O)(=O)Cc1nc2c(nc1CS(=O)(=O)CCCC)C(=O)c1ccccc1C2=O [PCR6236] | – | restored high levels of p53 expression | decreased HA-Ub-VS binding to USP8 | markedly reduced EGFR levels | induced Met degradation | 1.8 µM | strongly decreased | strongly decreased | No significant toxicity | strong capacity | < 0.03 µM | prevents Akt phosphorylation | EGFR and Met degradation | induces EGFR phosphorylation | EGFR and Met degradation
